Source: ChEMBL document CHEMBL1833869, “Effect of lipophilicity modulation on inhibition of human rhinovirus capsid binders” (Bioorg Med Chem Lett, 2011)
Values after ≈ are worked out from the molar mass of the structure shown. Values belong to the molecule of their own block, whether it stands above or below them.

Legend:
rhinovirus A16 = experiment: Antiviral activity against Human rhinovirus 16 infected in human HeLa Ohio cells assessed as inhibition of virus-induced cytopathic effect by CellTiter-Glo assay; format: functional, organism-based; conditions: Rhinovirus A
PXR (NR1I2) = biological target: T1, PXR (NR1I2) (Homo sapiens, UniProt O75469); experiment: Activation of human PXR expressed in african green monkey CV1 cells transfected with pSG5-hPXRDATG and (ER6)3-tk-CAT reporter assessed as maximal activation relative to control; format: cell-based, CV-1
T1 sequence (O75469 whole entry): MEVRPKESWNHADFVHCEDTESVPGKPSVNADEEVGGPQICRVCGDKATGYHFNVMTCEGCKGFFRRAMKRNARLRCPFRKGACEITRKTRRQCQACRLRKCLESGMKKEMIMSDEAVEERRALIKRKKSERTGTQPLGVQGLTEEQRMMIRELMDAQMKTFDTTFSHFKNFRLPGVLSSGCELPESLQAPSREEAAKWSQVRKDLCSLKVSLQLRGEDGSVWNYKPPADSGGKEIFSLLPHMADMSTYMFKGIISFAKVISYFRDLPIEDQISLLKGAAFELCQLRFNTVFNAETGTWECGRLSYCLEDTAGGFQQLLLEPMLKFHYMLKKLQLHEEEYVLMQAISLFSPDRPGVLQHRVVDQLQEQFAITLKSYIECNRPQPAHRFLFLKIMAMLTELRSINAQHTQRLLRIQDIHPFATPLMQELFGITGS

[1] = Clearance in rat at 2 mg/kg, iv; format: ADME, organism-based; set-up: dose 2 mg/kg, route intravenous; conditions: in vivo
[2] = Half life in rat at 2 mg/kg, iv; format: ADME, organism-based; set-up: dose 2 mg/kg, route intravenous; conditions: in vivo
[3] = Volume of distribution at steady state in rat at 2 mg/kg, iv; format: ADME, organism-based; set-up: dose 2 mg/kg, route intravenous; conditions: in vivo, read-out: Vdss
[4] = Oral bioavailability in rat; format: ADME, organism-based; conditions: in vivo
[5] = Lipophilicity, log D of the compound; format: physicochemical; conditions: octanol/water
rhinovirus A2 = experiment: Antiviral activity against Human rhinovirus 2 infected in human HeLa Ohio cells assessed as inhibition of virus-induced cytopathic effect by CellTiter-Glo assay; format: functional, organism-based; conditions: Rhinovirus A
[6] = Aqueous equilibrium solubility of the compound by shake-flask technique; format: physicochemical; conditions: buffer
[7] = Unbound fraction in human plasma; format: ADME, cell-free
[8] = Unbound fraction in rat plasma; format: ADME, cell-free
[9] = Intrinsic clearance in human microsomes after 45 mins by HPLC method; format: ADME, Microsome
[10] = Intrinsic clearance in Sprague-Dawley rat hepatocytes assessed per 10^6 cells preincubated for 5 mins measured after 90 mins; format: ADME, cell-based, Liver, Hepatocyte
[11] = Chemical stability of compound assessed as half life; format: physicochemical
[12] = Apparent permeability of compound by PAMPA; format: ADME
Cytochrome P450 1A2 [13] = biological target: T2, Cytochrome P450 1A2 (Homo sapiens, UniProt P05177); experiment: Inhibition of CYP1A2; format: ADME
T2 sequence (P05177 whole entry): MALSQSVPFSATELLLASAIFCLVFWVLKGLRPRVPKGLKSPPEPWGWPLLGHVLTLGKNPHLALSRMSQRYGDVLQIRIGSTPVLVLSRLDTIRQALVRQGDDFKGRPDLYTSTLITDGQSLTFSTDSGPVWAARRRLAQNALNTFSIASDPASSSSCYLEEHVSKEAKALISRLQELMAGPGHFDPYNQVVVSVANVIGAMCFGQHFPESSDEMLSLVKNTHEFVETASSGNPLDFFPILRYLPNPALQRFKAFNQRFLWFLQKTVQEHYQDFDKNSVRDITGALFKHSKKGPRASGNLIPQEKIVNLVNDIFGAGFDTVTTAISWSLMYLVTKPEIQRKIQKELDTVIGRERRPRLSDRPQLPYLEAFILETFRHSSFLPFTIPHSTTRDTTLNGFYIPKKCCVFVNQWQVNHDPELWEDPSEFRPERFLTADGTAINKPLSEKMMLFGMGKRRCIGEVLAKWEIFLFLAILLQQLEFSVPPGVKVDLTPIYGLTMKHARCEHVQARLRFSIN

Cytochrome P450 2C9 [14] = biological target: T3, Cytochrome P450 2C9 (Homo sapiens, UniProt P11712); experiment: Inhibition of CYP2C9; format: ADME
Cytochrome P450 2C19 [15] = biological target: T4, Cytochrome P450 2C19 (Homo sapiens, UniProt P33261); experiment: Inhibition of CYP2C19; format: ADME
Cytochrome P450 2D6 [16] = biological target: T5, Cytochrome P450 2D6 (Homo sapiens, UniProt P10635); experiment: Inhibition of CYP2D6; format: ADME
Cytochrome P450 3A4 [17] = biological target: T6, Cytochrome P450 3A4 (Homo sapiens, UniProt P08684); experiment: Inhibition of CYP3A4; format: ADME
Cytochrome P450 1A2 [18] = biological target: T2, Cytochrome P450 1A2; experiment: Time dependent inhibition of CYP1A2; format: ADME
Cytochrome P450 2C9 [19] = biological target: T3, Cytochrome P450 2C9; experiment: Time dependent inhibition of CYP2C9; format: ADME
Cytochrome P450 2C19 [20] = biological target: T4, Cytochrome P450 2C19; experiment: Time dependent inhibition of CYP2C19; format: ADME
Cytochrome P450 2D6 [21] = biological target: T5, Cytochrome P450 2D6; experiment: Time dependent inhibition of CYP2D6; format: ADME
Cytochrome P450 3A4 [22] = biological target: T6, Cytochrome P450 3A4; experiment: Time dependent inhibition of CYP3A4; format: ADME
[23] = biological target: T7, Nuclear receptor subfamily 1 group I member 2 (Homo sapiens, UniProt O75469); experiment: Activation of human PXR expressed in african green monkey CV1 cells transfected with pSG5-hPXRDATG and (ER6)3-tk-CAT reporter; format: cell-based, CV-1
T7 sequence (O75469 whole entry): T1 sequence (O75469 whole entry)

rhinovirus B14 = experiment: Antiviral activity against Human rhinovirus 14 infected in human HeLa Ohio cells assessed as inhibition of virus-induced cytopathic effect by CellTiter-Glo assay; format: functional, organism-based; conditions: Rhinovirus B

T4 sequence (P33261 whole entry): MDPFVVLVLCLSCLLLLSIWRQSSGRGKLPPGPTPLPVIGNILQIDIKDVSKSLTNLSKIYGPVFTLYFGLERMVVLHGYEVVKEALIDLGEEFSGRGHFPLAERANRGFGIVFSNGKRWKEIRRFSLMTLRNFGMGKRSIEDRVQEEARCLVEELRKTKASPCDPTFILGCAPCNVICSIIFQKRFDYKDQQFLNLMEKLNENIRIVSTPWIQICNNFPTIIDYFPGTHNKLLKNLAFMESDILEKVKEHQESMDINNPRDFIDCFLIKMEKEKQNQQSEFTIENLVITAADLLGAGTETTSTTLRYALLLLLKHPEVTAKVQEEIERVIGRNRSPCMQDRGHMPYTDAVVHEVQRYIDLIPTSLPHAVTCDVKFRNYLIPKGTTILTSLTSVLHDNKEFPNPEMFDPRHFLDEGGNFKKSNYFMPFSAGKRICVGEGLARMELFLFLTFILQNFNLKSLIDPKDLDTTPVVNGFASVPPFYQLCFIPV
T3 sequence (P11712 whole entry): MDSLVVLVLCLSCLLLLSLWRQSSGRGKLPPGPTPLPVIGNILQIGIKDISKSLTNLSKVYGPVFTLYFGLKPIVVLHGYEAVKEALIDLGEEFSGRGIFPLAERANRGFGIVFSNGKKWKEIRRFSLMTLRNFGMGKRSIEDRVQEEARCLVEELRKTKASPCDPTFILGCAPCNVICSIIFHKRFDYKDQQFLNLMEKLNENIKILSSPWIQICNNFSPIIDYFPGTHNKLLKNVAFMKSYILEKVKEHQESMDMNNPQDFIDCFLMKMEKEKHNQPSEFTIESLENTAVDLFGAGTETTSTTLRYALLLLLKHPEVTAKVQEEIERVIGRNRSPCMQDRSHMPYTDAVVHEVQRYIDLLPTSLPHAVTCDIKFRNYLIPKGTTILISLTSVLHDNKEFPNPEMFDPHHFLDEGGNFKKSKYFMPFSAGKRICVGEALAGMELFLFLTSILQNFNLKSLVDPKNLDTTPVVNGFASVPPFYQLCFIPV
T5 sequence (P10635 whole entry): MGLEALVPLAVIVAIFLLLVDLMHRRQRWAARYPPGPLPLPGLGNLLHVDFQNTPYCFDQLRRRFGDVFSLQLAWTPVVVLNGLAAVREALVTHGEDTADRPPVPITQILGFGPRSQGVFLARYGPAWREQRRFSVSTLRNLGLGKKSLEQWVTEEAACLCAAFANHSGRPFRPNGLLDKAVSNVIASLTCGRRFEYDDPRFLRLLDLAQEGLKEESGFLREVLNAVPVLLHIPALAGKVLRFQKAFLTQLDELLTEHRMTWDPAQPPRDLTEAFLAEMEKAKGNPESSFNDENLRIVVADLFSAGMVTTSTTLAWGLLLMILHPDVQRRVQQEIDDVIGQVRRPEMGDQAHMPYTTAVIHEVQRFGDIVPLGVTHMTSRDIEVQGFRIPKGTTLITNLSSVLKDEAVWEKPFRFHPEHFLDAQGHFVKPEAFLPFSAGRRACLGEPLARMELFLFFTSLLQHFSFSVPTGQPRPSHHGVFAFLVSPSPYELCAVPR
T6 sequence (P08684 whole entry): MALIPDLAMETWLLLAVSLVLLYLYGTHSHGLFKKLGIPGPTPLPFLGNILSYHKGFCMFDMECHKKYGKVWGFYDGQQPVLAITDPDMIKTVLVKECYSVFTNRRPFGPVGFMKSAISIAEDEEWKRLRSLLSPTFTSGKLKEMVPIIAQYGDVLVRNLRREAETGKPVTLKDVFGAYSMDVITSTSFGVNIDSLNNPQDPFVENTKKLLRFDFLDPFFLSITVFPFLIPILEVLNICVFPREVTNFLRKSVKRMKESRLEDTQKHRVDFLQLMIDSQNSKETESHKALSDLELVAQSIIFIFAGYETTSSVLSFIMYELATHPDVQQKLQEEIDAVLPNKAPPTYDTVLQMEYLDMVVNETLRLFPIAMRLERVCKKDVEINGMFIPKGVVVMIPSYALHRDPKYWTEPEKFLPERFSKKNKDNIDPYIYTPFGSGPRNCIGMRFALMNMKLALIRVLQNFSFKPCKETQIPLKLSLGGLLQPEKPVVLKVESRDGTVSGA

SMILES: CCOc1nc2ccc(OCCC3CCN(c4ccc(C)nn4)CC3)cn2n1
IC50 (rhinovirus A16): 1580 nM

Emax (PXR (NR1I2)): 19% | clearance [1]: 9 mL/min/kg | half-life [2]: 2.2 h | Vd [3]: 1.5 L/kg | bioavailability [4]: 60% | logD [5]: 2.6 | solubility thermodynamic [6]: 125 µM (≈ 42.2 µg/mL) | fraction unbound [7]: 0.06 | fraction unbound [8]: 0.05 | microsomal CLint [9]: 26 µL/min/mg | hepatocyte CLint [10]: 5 µL/min/1e6 cells | half-life [11]: > 200 h | Papp [12]: 47 ×10⁻⁶ cm/s | IC50 (Cytochrome P450 1A2 [13]): > 10000 nM | IC50 (Cytochrome P450 2C9 [14]): > 10000 nM | IC50 (Cytochrome P450 2C19 [15]): > 10000 nM | IC50 (Cytochrome P450 2D6 [16]): > 10000 nM | IC50 (Cytochrome P450 3A4 [17]): > 10000 nM | IC50 (Cytochrome P450 1A2 [18]): > 50100 nM | IC50 (Cytochrome P450 2C9 [19]): > 50100 nM | IC50 (Cytochrome P450 2C19 [20]): > 50100 nM | IC50 (Cytochrome P450 2D6 [21]): > 50100 nM | IC50 (Cytochrome P450 3A4 [22]): > 50100 nM | EC50 [23]: 31600 nM
SMILES: Cc1ccc(N2CC(COc3ccc(-c4noc(C)n4)cc3)C2)nn1
IC50 (rhinovirus A16): 79.4 nM | IC50 (rhinovirus A2): 50.1 nM

SMILES: CCOC(=O)c1ccc(OCC2CN(c3ccc(C)nn3)C2)cc1
IC50 (rhinovirus A16): 63.1 nM

Emax (PXR (NR1I2)): 88% | logD [5]: > 4.5 | solubility thermodynamic [6]: < 2 µM | fraction unbound [7]: 0.0013 | fraction unbound [8]: < 0.002 | microsomal CLint [9]: 22 µL/min/mg | hepatocyte CLint [10]: 20 µL/min/1e6 cells | IC50 (Cytochrome P450 1A2 [13]): > 10000 nM | IC50 (Cytochrome P450 2C9 [14]): > 10000 nM | IC50 (Cytochrome P450 2C19 [15]): > 10000 nM | IC50 (Cytochrome P450 2D6 [16]): 6310 nM | IC50 (Cytochrome P450 1A2 [18]): > 50100 nM | IC50 (Cytochrome P450 2C9 [19]): > 50100 nM | IC50 (Cytochrome P450 2C19 [20]): > 50100 nM | IC50 (Cytochrome P450 2D6 [21]): > 50100 nM | EC50 [23]: 251 nM
SMILES: Cc1cc(CCCOc2c(C)cc(-c3noc(C(F)(F)F)n3)cc2C)on1 [PLECONARIL]
IC50 (rhinovirus A16): 1000 nM | IC50 (rhinovirus B14): < 100 nM | IC50 (rhinovirus A2): 100 nM

SMILES: CCOC(=O)c1ccc(CCN2CCN(c3ccc(C)nn3)CC2)cc1
IC50 (rhinovirus A16): 79.4 nM

SMILES: CCOC(=O)c1ccc(COC2CCN(c3ccc(C)nn3)CC2)cc1
IC50 (rhinovirus A16): 25.1 nM

SMILES: CCOC(=O)c1ccc(OCCC2CCN(c3ccc(C)nn3)CC2)cn1
IC50 (rhinovirus A16): 2510 nM

SMILES: CCOC(=O)c1ccc(COCC2CCN(c3ccc(C)nn3)CC2)cc1
IC50 (rhinovirus A16): 100 nM

SMILES: CCOC(=O)c1ccc(OCCC2CCN(c3ccc(C)nn3)CC2)nc1
IC50 (rhinovirus A16): 63.1 nM

SMILES: CCOC(=O)c1ccc(OCCC2CN(c3ccc(C)nn3)C2)cc1
IC50 (rhinovirus A16): 31.6 nM

SMILES: CCOC(=O)c1ccc(OCC2CCN(c3ccc(C)nn3)C2)cc1 (stereo not drawn)
IC50 (rhinovirus A16): 20 nM

SMILES: CCOc1nnc2cc(OCCC3CCN(c4ccc(C)nn4)CC3)ccn12
IC50 (rhinovirus A16): 1580 nM

SMILES: CCOC(=O)c1ccc(COC2CN(c3ccc(C)nn3)C2)cc1
IC50 (rhinovirus A16): 63.1 nM

SMILES: Cc1ccc(N2CCC(CCOc3ccc([S+](C)[O-])cc3)CC2)nn1 (stereo not drawn)
IC50 (rhinovirus A16): > 31600 nM

SMILES: CCOC(=O)c1ccc(OCCC2CN(c3ccc(C)nn3)CCO2)cc1 (stereo not drawn)
IC50 (rhinovirus A16): 63.1 nM

SMILES: CCOC(=O)c1ccc(OCCC2(C#N)CCN(c3ccc(C)nn3)CC2)cc1
IC50 (rhinovirus A16): 158 nM

SMILES: CCOC(=O)c1ccc(OCCC2CCN(c3ccc(C)nn3)CC2)cc1 [PIRODAVIR]
IC50 (rhinovirus A16): 63.1 nM | IC50 (rhinovirus B14): < 100 nM | IC50 (rhinovirus A2): < 100 nM

SMILES: Cc1ccc(N2CCC(CCOc3ccc(S(C)(=O)=O)cc3)CC2)nn1
IC50 (rhinovirus A16): 2000 nM
